# Data taken from publication PMC9138505, “Small Molecule 20S Proteasome Enhancer Regulates MYC Protein Stability and Exhibits Antitumor Activity in Multiple Myeloma” (Biomedicines, 2022).
# Values joined by “and” are separate entries in the source; they are usually repeats but may differ in a detail not shown here. Equal values may be shown once.
# System: RPMI-8226 cells
# Assay: Gene expression profiling, NanoString nCounter PanCancer Pathways Panel, ROSALIND analysis
# Assay type: cell-based, human
# Settings: RPMI-8226, TCH-165 samples 1-3
# Protocol: RPMI-8226 cells were treated with vehicle or TCH-165 (10 μM) for 4 h. Total RNA was obtained using the mirVana miRNA Isolation Kit, with phenol (Thermofisher Scientific; AM1560; Waltham, MA, USA). Total RNA was quantified by Qubit (Thermofisher Scientific; Q32855; Waltham, MA, USA). and gene expression was evaluated against the nCounter® PanCancer Pathways Panel^TM according to the standard NanoString protocol.
# Data were analyzed by ROSALIND® [36] with a hyperscale architecture developed by ROSALIND, Inc. (San Diego, CA, USA). Normalization, fold changes and p-values were calculated using criteria provided by NanoString. ROSALIND follows the nCounter® Advanced Analysis protocol of dividing counts within a lane by the geometric mean of the normalizer probes from the same lane. Housekeeping probes to be used for normalization are selected based on the geNorm algorithm, as implemented in the NormqPCR R library. Fold changes and p-values are calculated using the fast method as described in the nCounter Advanced Analysis 2.0 User Manual. The p-value adjustment is performed using the Benjamini–Hochberg method of estimating false discovery rates (FDR). Clustering of genes for the final heatmap of differentially expressed genes was done using the PAM (Partitioning Around Medoids) method using the fpc R library. Hypergeometric distribution was used to analyze the enrichment of pathways, gene ontology, domain structure and other ontologies. The topGO R library was used to determine local similarities and dependencies between GO terms in order to perform Elim pruning correction. Several database sources were referenced for enrichment analysis, including Interpro [40], NCBI [41], MSigDB [42, 43], REACTOME [44], WikiPathways. Enrichment was calculated relative to a set of background genes relevant to the experiment.
compound,measurement,value
CCOC(=O)[C@]1(c2ccccc2)N=C(c2ccc(OC)cc2)N(Cc2ccccc2)[C@@H]1c1ccc(NCc2ccccc2)cc1 [TCH-165],LIFR normalized gene expression,4.488 and 4.2133 and 4.184
same,LIG4 normalized gene expression,6.629 and 6.817 and 6.796
same,LRP2 normalized gene expression,4.308 and 3.657 and 4.341
same,LTBP1 normalized gene expression,6.378 and 6.402 and 6.366
same,MAD2L2 normalized gene expression,10.1336 and 10.1942 and 10.1645
same,MAP2K1 normalized gene expression,10.0208 and 10.0248 and 9.981
same,MAP2K2 normalized gene expression,10.108 and 10.1628 and 10.1486
same,MAP2K4 normalized gene expression,7.169 and 6.524 and 6.893
same,MAP2K6 normalized gene expression,4.924 and 4.855 and 5.0068
same,MAP3K1 normalized gene expression,10.6246 and 10.5002 and 10.4469
same,MAP3K5 normalized gene expression,6.704 and 6.918 and 6.75
same,MAP3K8 normalized gene expression,6.308 and 6.569 and 6.506
same,MAP3K12 normalized gene expression,5.571 and 5.476 and 5.0682
same,MAP3K13 normalized gene expression,7.948 and 7.905 and 8.019
same,MAP3K14 normalized gene expression,7.978 and 7.887 and 7.688
same,MAPK1 normalized gene expression,8.625 and 8.638 and 8.461
same,MAPK3 normalized gene expression,9.736 and 9.67 and 9.676
same,MAPK8IP1 normalized gene expression,5.86 and 4.739 and 5.0068
same,MAPK8IP2 normalized gene expression,4.208 and 3.657 and 4.39
same,MAPK8 normalized gene expression,7.835 and 7.506 and 7.597
same,MAPK9 normalized gene expression,8.658 and 8.617 and 8.437
same,MAPK10 normalized gene expression,5.101 and 4.2133 and 4.876
same,MAPK12 normalized gene expression,7.499 and 7.109 and 7.1906
same,MAPT normalized gene expression,5.355 and 5.351 and 5.5707
same,MCM2 normalized gene expression,10.402 and 10.4329 and 10.4331
same,MCM4 normalized gene expression,11.2136 and 11.1596 and 11.149
same,MCM5 normalized gene expression,10.3105 and 10.197 and 10.1802
same,MCM7 normalized gene expression,13.0908 and 13.0284 and 12.9867
same,MDC1 normalized gene expression,10.2272 and 10.2142 and 10.1897
same,MDM2 normalized gene expression,10.4133 and 10.3393 and 10.3264
same,MECOM normalized gene expression,7.156 and 6.927 and 6.814
same,MED12 normalized gene expression,8.477 and 8.644 and 8.469
same,MEN1 normalized gene expression,9.714 and 9.644 and 9.611
same,MET normalized gene expression,5.924 and 5.093 and 5.613
same,MFNG normalized gene expression,9.115 and 9.16 and 9.044
same,MGMT normalized gene expression,8.108 and 8.085 and 8.034
same,MLF1 normalized gene expression,5.86 and 5.9093 and 5.712
same,MLH1 normalized gene expression,9.392 and 9.378 and 9.34
same,MLLT3 normalized gene expression,6.776 and 6.688 and 6.449
same,MLLT4 normalized gene expression,8.677 and 8.597 and 8.636
same,MMP3 normalized gene expression,4.401 and 3.27 and 4.341
same,MMP7 normalized gene expression,5.571 and 5.242 and 5.238
same,MMP9 normalized gene expression,4.649 and 4.855 and 4.0068
same,MNAT1 normalized gene expression,8.319 and 8.402 and 8.366
same,MPL normalized gene expression,4.308 and 4.154 and 3.805
same,MPO normalized gene expression,4.986 and 4.569 and 4.876
same,MSH2 normalized gene expression,9.884 and 9.976 and 9.945
same,MSH6 normalized gene expression,10.1754 and 9.989 and 10.0455
same,MTOR normalized gene expression,9.008 and 8.985 and 8.893
same,MUTYH normalized gene expression,6.74 and 6.512 and 6.663
same,MYB normalized gene expression,9.142 and 9.166 and 9.1468
same,MYC normalized gene expression,12.5611 and 12.5765 and 12.4952
same,MYCN normalized gene expression,7.142 and 6.817 and 6.893
same,MYD88 normalized gene expression,8.723 and 8.683 and 8.623
same,NASP normalized gene expression,8.252 and 8.093 and 8.307
same,NBN normalized gene expression,10.4814 and 10.4965 and 10.3946
same,NCOR1 normalized gene expression,9.769 and 9.64 and 9.618
same,NF1 normalized gene expression,9.325 and 9.277 and 9.208
same,NF2 normalized gene expression,9.205 and 9.097 and 9.096
same,NFATC1 normalized gene expression,5.355 and 5.427 and 5.461
same,NFE2L2 normalized gene expression,10.2602 and 10.1647 and 10.2373
same,NFKB1 normalized gene expression,8.156 and 8.124 and 8.177
same,NFKBIA normalized gene expression,9.249 and 9.354 and 9.231
same,NGFR normalized gene expression,5.445 and 5.154 and 5.098
same,NODAL normalized gene expression,5.445 and 5.093 and 4.876
same,NOG normalized gene expression,4.208 and 4.739 and 4.653
same,NOS3 normalized gene expression,5.044 and 4.524 and 4.5707
same,NOTCH1 normalized gene expression,8.62 and 8.452 and 8.261
same,NOTCH2 normalized gene expression,10.6545 and 10.568 and 10.5378
same,NPM1 normalized gene expression,7.667 and 7.529 and 7.245
same,NPM2 normalized gene expression,2.401 and 2.739 and 2.805
same,NR4A1 normalized gene expression,6.924 and 6.944 and 6.759
same,NR4A3 normalized gene expression,4.488 and 4.427 and 4.769
same,NRAS normalized gene expression,7.581 and 7.678 and 7.663
same,NTF3 normalized gene expression,7.456 and 7.1988 and 7.251
same,NTHL1 normalized gene expression,9.395 and 9.328 and 9.318
same,NTRK1 normalized gene expression,4.793 and 3.569 and 3.483
same,NTRK2 normalized gene expression,4.793 and 5.093 and 4.5707
same,NUMBL normalized gene expression,5.955 and 5.891 and 5.693
same,NUPR1 normalized gene expression,6.073 and 6.228 and 6.3536
same,OSM normalized gene expression,5.101 and 5.636 and 5.0682
same,PAK3 normalized gene expression,4.488 and 4.27 and 3.876
same,PAX3 normalized gene expression,4.649 and 4.029 and 4.0682
same,PAX5 normalized gene expression,4.986 and 3.962 and 4.693
same,PAX8 normalized gene expression,5.723 and 5.297 and 5.366
same,PBRM1 normalized gene expression,9.417 and 9.5 and 9.432
same,PBX1 normalized gene expression,8.776 and 8.575 and 8.5707
same,PBX3 normalized gene expression,6.53 and 6.427 and 6.426
same,PCK1 normalized gene expression,3.208 and 3.3768 and 3.0682
same,PCNA normalized gene expression,10.03 and 10.0442 and 10.0502
